Results: PubChem BioAssay AID1963983 (Molecular Pharmacology Branch, DTP, NCI, 2024)
pIC50: −log10 of the molar value.

Test system: 186277-243-T-J2-PDC multi-cell spheroid viability
Test: Anticancer human tumor 186277-243-T-J2-PDC patient-derived colon adenocarcinoma cell line growth inhibition [PI3K]
Conditions: for viability, T/C: stronger effect = lower value
In short: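 Agents were dosed from a top concentration near clinical Cmax (otherwise 10 microM) in half-log decrements, alone or combined with PI3K inhibitors. The spheroids contain tumor cells plus endothelial (HUVEC) and MSC stroma; viability is measured.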

[1] = curve of first compound, second compound 0.0316 µM
[2] = curve of first compound, second compound 0.1 µM
[3] = curve of first compound, second compound 0.316 µM
[4] = curve of first compound, second compound 1 µM
[5] = second compound 0.0316 µM, first compound 0.0316 µM
[6] = second compound 0.0316 µM, first compound 0.1 µM
[7] = second compound 0.1 µM, first compound 0.0316 µM
[8] = second compound 0.1 µM, first compound 0.1 µM
[9] = second compound 0.316 µM, first compound 0.0316 µM
[10] = second compound 0.316 µM, first compound 0.1 µM
[11] = second compound 1 µM, first compound 0.0316 µM
[12] = second compound 1 µM, first compound 0.1 µM
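Also: spheroids exposed to compounds for seven days before viability reading.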
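For viability, T/C in this document: 100% = DMSO vehicle control viability.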

Compound: Cn1ncnc1[C@H]1c2n[nH]c(=O)c3cc(F)cc(c23)N[C@@H]1c1ccc(F)cc1 + CC(Nc1ccc2c(c1)OCCn1cc(N3C(=O)OCC3C(F)F)nc1-2)C(N)=O
- pIC50 (curve of first compound, second compound 0.00316 µM): < 7.00
- pIC50 (curve of first compound, second compound 0.01 µM): < 7.00
- pIC50 [1]: < 7.00
- pIC50 [2]: < 7.00
- pIC50 [3]: 7.33
- pIC50 [4]: 9.23
- viability, T/C (second compound 0.00316 µM, first compound 0.000316 µM): 93.7%
- viability, T/C (second compound 0.00316 µM, first compound 0.001 µM): 85.8%
- viability, T/C (second compound 0.00316 µM, first compound 0.00316 µM): 105%
- viability, T/C (second compound 0.00316 µM, first compound 0.01 µM): 91%
- viability, T/C (second compound 0.00316 µM, first compound 0.0316 µM): 101%
- viability, T/C (second compound 0.00316 µM, first compound 0.1 µM): 94.9%
- viability, T/C (second compound 0.01 µM, first compound 0.000316 µM): 101%
- viability, T/C (second compound 0.01 µM, first compound 0.001 µM): 102%
- viability, T/C (second compound 0.01 µM, first compound 0.00316 µM): 104%
- viability, T/C (second compound 0.01 µM, first compound 0.01 µM): 102%
- viability, T/C (second compound 0.01 µM, first compound 0.0316 µM): 102%
- viability, T/C (second compound 0.01 µM, first compound 0.1 µM): 98.6%
- viability, T/C (second compound 0.0316 µM, first compound 0.000316 µM): 117%
- viability, T/C (second compound 0.0316 µM, first compound 0.001 µM): 107%
- viability, T/C (second compound 0.0316 µM, first compound 0.00316 µM): 101%
- viability, T/C (second compound 0.0316 µM, first compound 0.01 µM): 97.9%
- viability, T/C [5]: 101%
- viability, T/C [6]: 89%
- viability, T/C (second compound 0.1 µM, first compound 0.000316 µM): 102%
- viability, T/C (second compound 0.1 µM, first compound 0.001 µM): 105%
- viability, T/C (second compound 0.1 µM, first compound 0.00316 µM): 112%
- viability, T/C (second compound 0.1 µM, first compound 0.01 µM): 99.5%
- viability, T/C [7]: 93.5%
- viability, T/C [8]: 69.4%
- viability, T/C (second compound 0.316 µM, first compound 0.000316 µM): 80.6%
- viability, T/C (second compound 0.316 µM, first compound 0.001 µM): 84.4%
- viability, T/C (second compound 0.316 µM, first compound 0.00316 µM): 65%
- viability, T/C (second compound 0.316 µM, first compound 0.01 µM): 64.8%
- viability, T/C [9]: 53.7%
- viability, T/C [10]: 43.3%
- viability, T/C (second compound 1 µM, first compound 0.000316 µM): 52.2%
- viability, T/C (second compound 1 µM, first compound 0.001 µM): 46.6%
- viability, T/C (second compound 1 µM, first compound 0.00316 µM): 46.9%
- viability, T/C (second compound 1 µM, first compound 0.01 µM): 39.4%
- viability, T/C [11]: 31.9%
- viability, T/C [12]: 26.6%

Compound: Cc1nc(NC(=O)N2CCCC2C(N)=O)sc1-c1ccnc(C(C)(C)C(F)(F)F)c1 (configuration not stated)
- viability, T/C (compound 0.1 µM): 104% [middle of 8 runs]
- viability, T/C (compound 0.316 µM): 110% [middle of 8 runs]
- viability, T/C (compound 1 µM): 102% [middle of 8 runs]
- viability, T/C (compound 3.16 µM): 54.1% [middle of 8 runs]
- viability, T/C (compound 10 µM): 16.6% [middle of 8 runs]
- IC50 (compound alone, run of 05/08/2023): 3.62 µM [middle of 8 runs]

Compound: Cn1nccc1Nc1nccc(-c2ccn(C(CO)c3ccc(Cl)c(F)c3)c(=O)c2)n1 (configuration not stated) + CC(Nc1ncnc2nc[nH]c12)c1cc2cccc(Cl)c2c(=O)n1-c1ccccc1
- pIC50 [1]: 5.55
- pIC50 [2]: 5.62
- pIC50 [3]: 5.62
- pIC50 [4]: 5.68
- pIC50 (curve of first compound, second compound 3.16 µM): 5.94
- pIC50 (curve of first compound, second compound 10 µM): 6.47
- viability, T/C [5]: 82.5%
- viability, T/C [6]: 86.9%
- viability, T/C (second compound 0.0316 µM, first compound 0.316 µM): 112%
- viability, T/C (second compound 0.0316 µM, first compound 1 µM): 83.7%
- viability, T/C (second compound 0.0316 µM, first compound 3.16 µM): 46.3%
- viability, T/C (second compound 0.0316 µM, first compound 10 µM): 23.6%
- viability, T/C [7]: 85.3%
- viability, T/C [8]: 103%
- viability, T/C (second compound 0.1 µM, first compound 0.316 µM): 107%
- viability, T/C (second compound 0.1 µM, first compound 1 µM): 89.1%
- viability, T/C (second compound 0.1 µM, first compound 3.16 µM): 37.2%
- viability, T/C (second compound 0.1 µM, first compound 10 µM): 26.2%
- viability, T/C [9]: 94.7%
- viability, T/C [10]: 96.1%
- viability, T/C (second compound 0.316 µM, first compound 0.316 µM): 125%
- viability, T/C (second compound 0.316 µM, first compound 1 µM): 83.1%
- viability, T/C (second compound 0.316 µM, first compound 3.16 µM): 40.9%
- viability, T/C (second compound 0.316 µM, first compound 10 µM): 23.7%
- viability, T/C [11]: 94.3%
- viability, T/C [12]: 101%
- viability, T/C (second compound 1 µM, first compound 0.316 µM): 103%
- viability, T/C (second compound 1 µM, first compound 1 µM): 75.7%
- viability, T/C (second compound 1 µM, first compound 3.16 µM): 36.3%
- viability, T/C (second compound 1 µM, first compound 10 µM): 24.3%
- viability, T/C (second compound 3.16 µM, first compound 0.0316 µM): 106%
- viability, T/C (second compound 3.16 µM, first compound 0.1 µM): 100%
- viability, T/C (second compound 3.16 µM, first compound 0.316 µM): 105%
- viability, T/C (second compound 3.16 µM, first compound 1 µM): 53.9%
- viability, T/C (second compound 3.16 µM, first compound 3.16 µM): 27.6%
- viability, T/C (second compound 3.16 µM, first compound 10 µM): 20.8%
- viability, T/C (second compound 10 µM, first compound 0.0316 µM): 88.7%
- viability, T/C (second compound 10 µM, first compound 0.1 µM): 91.4%
- viability, T/C (second compound 10 µM, first compound 0.316 µM): 51%
- viability, T/C (second compound 10 µM, first compound 1 µM): 27.5%
- viability, T/C (second compound 10 µM, first compound 3.16 µM): 24.5%
- viability, T/C (second compound 10 µM, first compound 10 µM): 15.5%

Compound: CC(Nc1ncnc2nc[nH]c12)c1cc2cccc(Cl)c2c(=O)n1-c1ccccc1 (configuration not stated)
- viability, T/C (compound 0.0316 µM): 97.5% [middle of 8 runs]
- viability, T/C (compound 0.1 µM): 102% [middle of 8 runs]
- viability, T/C (compound 0.316 µM): 101% [middle of 8 runs]
- viability, T/C (compound 1 µM): 101% [middle of 8 runs]
- viability, T/C (compound 3.16 µM): 98.6% [middle of 8 runs]
- viability, T/C (compound 10 µM): 99.5% [middle of 8 runs]
- pIC50 (compound alone, run of 05/09/2023): < 5.00
